Data as given in PubChem BioAssay (NCI).
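The compound was tested at five concentrations on cells cultured in 96-well plates, with a 48-hour exposure period. GI50 = concentration required for 50% inhibition of growth. At the TGI there is no net growth.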

Tests used:
Test in all cases: NCI-60 cell line screen, 48 h
A498 renal = tested on: A498 renal
CAKI-1 renal = tested on: CAKI-1 renal
COLO 205 colon = tested on: COLO 205 colon
HCC-2998 colon = tested on: HCC-2998 colon
MDA-MB-231 breast = tested on: MDA-MB-231 breast
NCI-H226 lung = tested on: NCI-H226 lung
NCI/ADR-RES ovarian = tested on: NCI/ADR-RES ovarian
OVCAR-3 ovarian = tested on: OVCAR-3 ovarian
SNB-19 CNS = tested on: SNB-19 CNS
SW-620 colon = tested on: SW-620 colon

Row | SMILES | GI50 (A498 renal) | TGI (A498 renal) | GI50 (CAKI-1 renal) | TGI (CAKI-1 renal) | GI50 (COLO 205 colon) | TGI (COLO 205 colon) | GI50 (HCC-2998 colon) | TGI (HCC-2998 colon) | GI50 (MDA-MB-231 breast) | TGI (MDA-MB-231 breast) | GI50 (NCI-H226 lung) | TGI (NCI-H226 lung) | GI50 (NCI/ADR-RES ovarian) | TGI (NCI/ADR-RES ovarian) | GI50 (OVCAR-3 ovarian) | TGI (OVCAR-3 ovarian) | GI50 (SNB-19 CNS) | TGI (SNB-19 CNS) | GI50 (SW-620 colon) | TGI (SW-620 colon)
1 | CCCCCCCCCCCCNC(=O)[C@H]1CSC(c2cc3ccccc3s2)N1 (stereo not given in full) | 10.2 µM | 26.3 µM | 2.09 µM | 6.4 µM | 6.46 µM | 12.3 µM | 4.88 µM | 9.72 µM | 0.706 µM | 1.46 µM | 3 µM | 7.88 µM | 1.66 µM | 6.83 µM | 3.79 µM | 9.5 µM | 5.47 µM | 11.2 µM | 2.3 µM | 7.93 µM
2 | COc1ccccc1-c1cc(/C=C2\C(=O)Nc3ncc(Br)cc32)cc(Br)c1O | 3.73 µM | 19.5 µM | 10.1 µM | > 25 µM | 20.2 µM | > 25 µM | > 25 µM | > 25 µM | 8.52 µM | > 25 µM | 12.5 µM | > 25 µM | 14.5 µM | > 25 µM | 9.51 µM | > 25 µM | 12.5 µM | > 25 µM | 19.4 µM | > 25 µM
3 | CCOC(=O)C(Cc1c[nH]c2ccc([N+](=O)[O-])cc12)(NC(C)=O)C(=O)OCC | 8.18 µM | > 390 µM | 34.2 µM | > 1000 µM | > 1000 µM | > 1000 µM | > 1000 µM | > 1000 µM | 140 µM | > 1000 µM | > 546 µM | > 1000 µM | 53.6 µM | > 1000 µM | 75.3 µM | > 1000 µM | 138 µM | 598 µM | > 1000 µM | > 1000 µM
4 | Cc1nc2ccccn2c1NC(=O)NNC(=S)Nc1ccc(Br)cc1 | 32.8 µM | 88.1 µM | 29.6 µM | > 100 µM | 29.4 µM | 84.5 µM | 27.4 µM | 73.1 µM | 22.6 µM | 59.1 µM | 38.4 µM | > 100 µM | 24.5 µM | 58 µM | 38.6 µM | 94.8 µM | 39.1 µM | > 100 µM | 39.8 µM | > 100 µM
5 | Cc1ncc(C(=O)Nc2ccc(CN3CCN(C)CC3)c(C(F)(F)F)c2)cc1C#Cc1cnc(N)c2cnccc12 | 0.0511 µM | 0.3 µM | 0.167 µM | 1.64 µM | 0.0276 µM | 3.74 µM | 0.133 µM | 15.2 µM | 0.0289 µM | 0.165 µM | 0.175 µM | 3.09 µM | 6.68 µM | 23.9 µM | 0.181 µM | 5.98 µM | 0.684 µM | 17.6 µM | 0.0649 µM | 1.39 µM
6 | NC(=O)C1c2ccccc2C=Cc2ccccc21 | > 100 µM | > 100 µM | > 100 µM | > 100 µM | > 100 µM | > 100 µM | > 100 µM | > 100 µM | > 100 µM | > 100 µM | > 100 µM | > 100 µM | > 100 µM | > 100 µM | > 100 µM | > 100 µM | > 100 µM | > 100 µM | > 100 µM | > 100 µM
